Results as given in patent publication US6919378B2, “Pharmaceutical solutions of modafinil compounds” (Cephalon, Inc., priority 2000, dated 2005).
≈ marks a conversion by molar mass, not a printed value.

Tests used:
[1] = Solubility of modafinil in solvent composition, measured by HPLC; assay type: physicochemical; settings: PEG-400:benzyl alcohol 95:5 (v/v) solvent mixture, organic solvent or mixture, thermodynamic from solid, in 95:5 (v/v) PEG-400:benzyl alcohol, cooled to room temperature, filtered
Procedure: The following HPLC method may be used to measure the modafinil compound content in the compositions. Filter a solution saturated with a modafinil compound through a 1.2 μm syringe filter. Dilute 10 μL of the clear solution to 1 mL with 990 μL of dimethylsulfoxide (Fischer Certified ACS grade). Take 10 μL of the diluted solution for the HPLC analysis, with the following representative column conditions: • Flow rate: 1.2 mL/min. • Column: ODS, 4.6×20 mm, Column Temp: 30° C. • Mobil phase: 80% (65% Acetonitrile/35% 1M phosphate buffer) • 20% water • Analysis time: 5 minutes • Wavelength: 222 nanometers
Concentration can be calculated by comparison to area from a modafinil compound standard used at 0.4 mg/mL with appropriate dilution.
A mixture of 95 mL of PEG-400 and 5 ml of benzyl alcohol was stirred at room temperature until homogeneous. To a separate container, 0.1 gram of modafinil was weighed and 1 mL of the mixed solvent was added with stirring and heating to 55-60° C. The solution was allowed to cool to room temperature and any undissolved solid was removed by filtering the solution. In the case of a viscous solution or a solution that solidifies at room temperature, warming until a freely flowing solution was obtained and then filtration gave a solution free of particulate matter.

mice = settings: single administration; cited from earlier work
monkeys = settings: single administration; cited from earlier work
[2] = Water and lipid solubility (observation)

**Q.** Which results are given for `NC(=O)C[S+]([O-])C(c1ccccc1)c1ccccc1` (centres unmarked) [modafinil, 2-(benzhydryl-sulfinyl)acetamide]?
**A.** solubility [1]: 61 mg/mL (≈ 223 mM); locomotor activity (mice): increased locomotor activity; nocturnal activity (monkeys): increased nocturnal activity; lipid solubility [2]: very poor; water solubility [2]: very poor
